From US7994185B2, “Benzene sulfonamide thiazole and oxazole compounds” (Glaxo Smith Kline LLC, priority 2008, dated 2011)
Structures can show the parent of a compound that is named as a salt. Where two headings read alike, the source gives them in different places.

Tests used:
[1] = molecular target: T1, BRAFV600E full-length (amino acids 2-766) (Homo sapiens, UniProt P15056, V600E); assay: B-Raf Accelerated MEK ATPase assay (BRAMA); type: biochemical; conditions: categorized
T1 construct: His6-tagged BRAFV600E full-length (amino acids 2-766); His6; made in house; host or cells: baculovirus expression system (insect cells)
T1 sequence (P15056 2-766 V600E): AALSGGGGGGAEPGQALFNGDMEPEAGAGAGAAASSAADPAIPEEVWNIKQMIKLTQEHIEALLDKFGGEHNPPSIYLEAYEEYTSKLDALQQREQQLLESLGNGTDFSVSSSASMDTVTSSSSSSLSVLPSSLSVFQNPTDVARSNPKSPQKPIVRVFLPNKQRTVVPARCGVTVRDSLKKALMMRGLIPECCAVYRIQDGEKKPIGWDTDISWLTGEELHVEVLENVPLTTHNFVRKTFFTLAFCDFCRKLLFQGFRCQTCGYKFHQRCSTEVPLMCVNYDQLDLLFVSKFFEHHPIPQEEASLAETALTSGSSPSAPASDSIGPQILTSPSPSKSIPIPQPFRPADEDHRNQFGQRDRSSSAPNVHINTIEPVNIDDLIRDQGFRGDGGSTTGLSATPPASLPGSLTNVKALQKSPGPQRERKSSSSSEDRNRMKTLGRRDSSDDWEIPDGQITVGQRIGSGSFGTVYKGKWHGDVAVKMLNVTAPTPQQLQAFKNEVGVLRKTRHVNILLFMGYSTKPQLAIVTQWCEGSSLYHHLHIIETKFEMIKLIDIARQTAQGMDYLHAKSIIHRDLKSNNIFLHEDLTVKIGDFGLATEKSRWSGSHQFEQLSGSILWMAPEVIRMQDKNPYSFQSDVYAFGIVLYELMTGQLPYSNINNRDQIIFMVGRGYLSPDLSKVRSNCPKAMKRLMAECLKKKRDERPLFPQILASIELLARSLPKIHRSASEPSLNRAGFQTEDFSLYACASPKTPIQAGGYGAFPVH
Summary of the method: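 Coupled-enzyme readout: ADP generated by MEK-mediated ATP hydrolysis, uncoupled from ERK phosphorylation, is linked to NADH oxidation through pyruvate kinase and lactate dehydrogenase.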

[2] = test system: Human colon tumor cells (Colo205); assay: Cell growth inhibition assay (CellTiter-Glo), Colo205; type: cell-based
Summary of the method: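 Read-out was CellTiter-Glo luminescence (total ATP as a cell-number surrogate), expressed as % inhibition against DMSO vehicle wells. Before that, cells grown in RPMI/10% FBS were treated for 3 days at 37 °C with ten 1:3-spaced compound concentrations, final DMSO 0.2%.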

[3] = test system: Human melanoma cancer cells (SK-MEL-28); assay: Cell growth inhibition assay (CellTiter-Glo), SK-MEL-28; type: cell-based
[4] = B-Raf pIC50, Table 1b, later runs, average pIC50 for the one or more runs
[5] = COLO 205, Table 2b, later runs, average for the one or more runs, categorized, read-out: IC50 for Colo205
[6] = SK-MEL-28, Table 3b, later runs, average for the one or more runs, categorized, read-out: IC50 for SK-MEL-28
[7] = B-Raf Activity, Table 1a, highest pIC50 for the one or more runs
[8] = Table 1b, later runs, average pIC50 for the one or more runs, read-out: B-Raf pIC50 (converted)
[9] = COLO 205, 72 h, Table 2a, 3 days incubation, read-out: Activity in Colo205 Tumor Cells
[10] = SK-MEL-28, 72 h, Table 3a, 3 days incubation, read-out: Activity in SK-MEL-28 Tumor Cells

| SMILES | IC50 [1, 4] | IC50 [2, 5] | IC50 [3, 6] | IC50 [1, 7] | IC50 [1, 8] | IC50 [2, 9] | IC50 [3, 10] |
| --- | --- | --- | --- | --- | --- | --- | --- |
| Nc1nccc(-c2sc(N3CCOCC3)nc2-c2cccc(NS(=O)(=O)c3ccoc3)c2Cl)n1 [Example 266, N-{3-[5-(2-amino-4-pyrimidinyl)-2-(4-morpholinyl)-1,3-thiazol-4-yl]-2-chlorophenyl}-3-furansulfonamide] | ≤ 3.16 nM | < 100 nM | < 100 nM | – | – | – | – |
| COc1ccc(F)cc1S(=O)(=O)Nc1cccc(-c2nc(C(C)C)sc2-c2ccnc(NC3CCN(S(C)(=O)=O)CC3)n2)c1F [Example 153] | – | < 100 nM | < 100 nM | < 100 nM | 3.16 to 31.6 nM | < 100 nM | < 100 nM |
| Nc1nccc(-c2sc(N3CCOCC3)nc2-c2cccc(NS(=O)(=O)c3cc(F)ccc3F)c2)n1 [Example 200] | – | 100 to 1000 nM | 100 to 1000 nM | < 100 nM | 3.16 to 31.6 nM | 100 to 1000 nM | 100 to 1000 nM |
| Cc1nccc(-c2sc(C(C)(C)C)nc2-c2cccc(NS(=O)(=O)c3ccoc3)c2Cl)n1 [Example 270, N-{2-chloro-3-[2-(1,1-dimethylethyl)-5-(2-methyl-4-pyrimidinyl)-1,3-thiazol-4-yl]phenyl}-3-furansulfonamide] | ≤ 3.16 nM | 100 to 1000 nM | 100 to 1000 nM | – | – | – | – |
| CC(C)(C)c1nc(-c2cccc(NS(=O)(=O)c3ccco3)c2Cl)c(-c2ccnc(N)n2)s1 [Example 259, N-{3-[5-(2-amino-4-pyrimidinyl)-2-(1,1-dimethylethyl)-1,3-thiazol-4-yl]-2-chlorophenyl}-2-furansulfonamide] | ≤ 3.16 nM | < 100 nM | < 100 nM | – | – | – | – |
| CC(C)CNc1nccc(-c2sc(N3CCOCC3)nc2-c2cccc(NS(=O)(=O)c3c(F)cccc3F)c2F)n1 [Example 91, 2,6-Difluoro-N-{2-fluoro-3-[5-{2-[(2-methylpropyl)amino]-4-pyrimidinyl}-2-(4-morpholinyl)-1,3-thiazol-4-yl]phenyl}benzenesulfonamide] | ≤ 3.16 nM | < 100 nM | < 100 nM | < 100 nM | – | < 100 nM | < 100 nM |
| CC(C)CNc1nccc(-c2sc(C3CCOCC3)nc2-c2cccc(NS(=O)(=O)c3c(F)cccc3F)c2Cl)n1 [Example 18, N-{2-Chloro-3-[5-{2-[(2-methylpropyl)amino]-4-pyrimidinyl}-2-(tetrahydro-2H-pyran-4-yl)-1,3-thiazol-4-yl]phenyl}-2,6-difluorobenzenesulfonamide] | ≤ 3.16 nM | < 100 nM | < 100 nM | < 100 nM | – | < 100 nM | < 100 nM |
| CC(C)(C)c1nc(-c2cccc(NS(=O)(=O)c3ccccc3)c2F)c(-c2ccnc(N)n2)s1 [Example 219, N-{3-[5-(2-amino-4-pyrimidinyl)-2-(1,1-dimethylethyl)-1,3-thiazol-4-yl]-2-fluorophenyl}benzenesulfonamide] | – | < 100 nM | < 100 nM | – | 3.16 to 31.6 nM | – | – |
| Nc1nccc(-c2sc(C3CCOCC3)nc2-c2cccc(NS(=O)(=O)c3cnccn3)c2F)n1 [Example 280, N-{3-[5-(2-amino-4-pyrimidinyl)-2-(tetrahydro-2H-pyran-4-yl)-1,3-thiazol-4-yl]-2-fluorophenyl}-2-pyrazinesulfonamide] | ≤ 3.16 nM | 100 to 1000 nM | 100 to 1000 nM | – | – | – | – |
| Cn1nccc1S(=O)(=O)Nc1cccc(-c2nc(C(C)(C)C)sc2-c2ccnc(N)n2)c1F [Example 282, N-{3-[5-(2-amino-4-pyrimidinyl)-2-(1,1-dimethylethyl)-1,3-thiazol-4-yl]-2-fluorophenyl}-1-methyl-1H-pyrazole-5-sulfonamide hydrochloride] | 31.6 to 1000 nM | 100 to 1000 nM | 1000 to 10000 nM | – | – | – | – |
| CC(C)(C)c1nc(-c2cccc(NS(=O)(=O)c3cc(F)ccc3F)c2Cl)c(-c2ccncn2)s1 [Example 228, N-{2-chloro-3-[2-(1,1-dimethylethyl)-5-(4-pyrimidinyl)-1,3-thiazol-4-yl]phenyl}-2,5-difluorobenzenesulfonamide] | ≤ 3.16 nM | < 100 nM | < 100 nM | – | – | – | – |
| CC(C)c1nc(-c2cccc(NS(=O)(=O)C3CC3)c2)c(-c2ccnc(NCCS(C)(=O)=O)n2)s1 [Example 52, N-{3-[2-(1-Methylethyl)-5-(2-{[2-(methylsulfonyl)ethyl]amino}-4-pyrimidinyl)-1,3-thiazol-4-yl]phenyl}cyclopropanesulfonamide] | 31.6 to 1000 nM | 100 to 1000 nM | 100 to 1000 nM | 100 to 1000 nM | – | 100 to 1000 nM | 100 to 1000 nM |
| CC(C)c1nc(-c2ccc(F)c(NS(=O)(=O)c3cc(F)ccc3F)c2)c(-c2ccnc(NC3CCOCC3)n2)s1 [Example 76, 2,5-Difluoro-N-(2-fluoro-5-{2-(1-methylethyl)-5-[2-(tetrahydro-2H-pyran-4-ylamino)-4-pyrimidinyl]-1,3-thiazol-4-yl}phenyl)benzenesulfonamide] | – | 100 to 1000 nM | 100 to 1000 nM | < 100 nM | 3.16 to 31.6 nM | 100 to 1000 nM | 100 to 1000 nM |
| CC(C)(C)c1nc(-c2c(F)ccc(NS(=O)(=O)c3cccc(F)c3)c2F)c(-c2ccncn2)s1 [Example 221, N-{3-[2-(1,1-dimethylethyl)-5-(4-pyrimidinyl)-1,3-thiazol-4-yl]-2,4-difluorophenyl}-3-fluorobenzenesulfonamide] | ≤ 3.16 nM | < 100 nM | < 100 nM | – | – | – | – |
| CC(C)c1nc(-c2ccc(F)c(NS(=O)(=O)c3c(F)cccc3F)c2)c(-c2ccnc(NCC(F)F)n2)s1 [Example 93, N-{5-[5-{2-[(2,2-Difluoroethyl)amino]-4-pyrimidinyl}-2-(1-methylethyl)-1,3-thiazol-4-yl]-2-fluorophenyl}-2,6-difluorobenzenesulfonamide] | – | 100 to 1000 nM | 100 to 1000 nM | < 100 nM | 3.16 to 31.6 nM | 100 to 1000 nM | 100 to 1000 nM |
| CC(C)c1nc(-c2ccc(F)c(NS(=O)(=O)c3cc(F)ccc3F)c2)c(-c2ccnc(NC3CCN(S(C)(=O)=O)CC3)n2)s1 [Example 75, 2,5-Difluoro-N-{2-fluoro-5-[2-(1-methylethyl)-5-(2-{[1-(methylsulfonyl)-4-piperidinyl]amino}-4-pyrimidinyl)-1,3-thiazol-4-yl]phenyl}benzenesulfonamide] | ≤ 3.16 nM | < 100 nM | < 100 nM | < 100 nM | – | < 100 nM | < 100 nM |
| CC(=O)NCCCNc1nccc(-c2sc(C(C)C)nc2-c2cccc(NS(=O)(=O)c3cc(F)ccc3F)c2F)n1 [Example 194] | ≤ 3.16 nM | – | < 100 nM | < 100 nM | – | < 100 nM | < 100 nM |
| Cn1cc(S(=O)(=O)Nc2cccc(-c3nc(C4CCOCC4)sc3-c3ccnc(N)n3)c2F)cn1 [Example 286, N-{3-[5-(2-amino-4-pyrimidinyl)-2-(tetrahydro-2H-pyran-4-yl)-1,3-thiazol-4-yl]-2-fluorophenyl}-1-methyl-1H-pyrazole-4-sulfonamide hydrochloride] | – | 100 to 1000 nM | 100 to 1000 nM | – | 3.16 to 31.6 nM | – | – |
| CC(C)CNc1nccc(-c2sc(N3CCOCC3)nc2-c2cccc(NS(=O)(=O)c3cc(F)ccc3F)c2Cl)n1 [Example 22, N-{2-Chloro-3-[5-{2-[(2-methylpropyl)amino]-4-pyrimidinyl}-2-(4-morpholinyl)-1,3-thiazol-4-yl]phenyl}-2,5-difluorobenzenesulfonamide] | – | < 100 nM | < 100 nM | < 100 nM | 3.16 to 31.6 nM | < 100 nM | < 100 nM |
| COCCCNc1nccc(-c2sc(C(C)(C)C)nc2-c2cccc(NS(=O)(=O)c3cc(F)ccc3F)c2F)n1 [Example 211] | ≤ 3.16 nM | < 100 nM | < 100 nM | < 100 nM | – | < 100 nM | < 100 nM |
| CC(C)CNc1nccc(-c2sc(C(C)(C)C)nc2-c2cccc(NS(=O)(=O)c3cc(F)ccc3F)c2)n1 [Example 3, N-[3-(2-(1,1-Dimethylethyl)-5-{2-[(2-methylpropyl)amino]-4-pyrimidinyl}-1,3-thiazol-4-yl)phenyl]-2,5-difluorobenzenesulfonamide] | – | < 100 nM | < 100 nM | < 100 nM | 3.16 to 31.6 nM | < 100 nM | < 100 nM |
| COCCCNc1nccc(-c2sc(C(C)C)nc2-c2ccc(F)c(NS(=O)(=O)c3c(F)cccc3F)c2)n1 [Example 168] | 31.6 to 1000 nM | 100 to 1000 nM | 100 to 1000 nM | – | – | 100 to 1000 nM | 100 to 1000 nM |
| CNc1nccc(-c2sc(C(C)C)nc2-c2ccc(F)c(NS(=O)(=O)c3cc(F)ccc3F)c2)n1 [Example 73, 2,5-Difluoro-N-{2-fluoro-5-[5-[2-(methylamino)-4-pyrimidinyl]-2-(1-methylethyl)-1,3-thiazol-4-yl]phenyl}benzenesulfonamide] | – | 1000 to 10000 nM | 1000 to 10000 nM | < 100 nM | 3.16 to 31.6 nM | > 1000 nM | > 1000 nM |
| CC(C)(C)c1nc(-c2cccc(NS(=O)(=O)c3cc(F)ccc3F)c2F)c(-c2ccnc(NCC(F)F)n2)s1 [Example 177] | ≤ 3.16 nM | 1000 to 10000 nM | 1000 to 10000 nM | < 100 nM | – | < 100 nM | < 100 nM |
